Source: PubChem BioAssay (NCI)
Where “and” joins values, the source holds several entries; their conditions need not be identical. Equal entries are not always repeated.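 Dose response: 5 concentrations. Exposure: 48 h. Format: 96-well plates. Endpoint: linear interpolation; highest concentration if not reached. GI50 = concentration required for 50% inhibition of growth. TGI: total growth inhibition.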

Experiments:
Test in all cases: inhibition of tumour cell growth, NCI panel, 48 h
BT-549 breast = tested on: BT-549 breast
DU-145 prostate = tested on: DU-145 prostate
MDA-MB-231 breast = tested on: MDA-MB-231 breast
MDA-MB-435 = tested on: MDA-MB-435
MDA-N = tested on: MDA-N
SNB-78 CNS = tested on: SNB-78 CNS
RXF-631 renal = tested on: RXF-631 renal

| Structure (SMILES) | TGI (BT-549 breast) | TGI (DU-145 prostate) [µM] | TGI (MDA-MB-231 breast) [µM] | TGI (MDA-MB-435) | TGI (MDA-N) | GI50 (BT-549 breast) [µM] | GI50 (DU-145 prostate) [µM] | GI50 (MDA-MB-231 breast) [µM] | GI50 (MDA-MB-435) [µM] | GI50 (MDA-N) [µM] | TGI (SNB-78 CNS) [µM] | TGI (RXF-631 renal) [µM] |
| --- | --- | --- | --- | --- | --- | --- | --- | --- | --- | --- | --- | --- |
| CCN(CCO)CC1CCCC2CCCCC21 (configuration not stated) | > 100 µM | > 100 | > 100 | > 100 µM | > 100 µM |  |  |  |  |  |  |  |
| CC[C@@]1(O)C[C@H](OC2CC(N(C)C)C(O)C(C)O2)c2c(O)c3c(c(O)c2[C@H]1OC1CC(N(C)C)C(O)C(C)O1)C(=O)c1cccc(O)c1C3=O (some centres not stated) | 0.293 µM and 0.102 µM | 11.3 |  | 0.123 µM and 0.0187 µM | 0.156 µM and 0.113 µM | < 0.01 | < 0.01 | < 0.01 | < 0.01 | < 0.01 |  |  |
| NNC(=O)Nc1cccnc1 |  | > 100 | > 100 | > 100 µM | > 100 µM |  |  |  |  |  |  |  |
| CC/C=C\CCC/C=C1/C(=O)C=C[C@@H]1C/C=C\CCCC(=O)OC |  | 21.1 | 14.9 | 6.39 µM |  |  | 8.67 | 4.23 | 2.49 |  |  |  |
| COc1ccc(-c2nc3sccn3c2/C(N)=N/C(=N)N)cc1OC | 43.3 µM | > 100 | 39.3 | > 100 µM |  | 22.8 | 52.4 | 17.8 | 33.1 |  |  |  |
| CCCCCCCCCCCOc1ccc(C(=O)C(=O)c2ccc(OCCCCCCCCCCC)c(OCCCCCCCCCCC)c2)cc1OCCCCCCCCCCC |  |  |  |  |  |  |  |  |  |  | > 100 |  |
| Cn1cnc([N+](=O)[O-])c1Sc1nnc(-c2cccnc2)n1C | 36.5 µM | > 80.7 | 39.4 | 30.2 µM | 43.3 µM |  |  |  |  |  | 63.2 |  |
| COC1=CC(=O)c2nc(-c3ccncc3)[nH]c2C1=O | > 100 µM | > 100 | > 100 | > 100 µM |  | > 100 | > 100 | > 100 | > 100 |  |  |  |
| CC(C)C/C(CC(=O)CCC(=O)Nc1ccccc1[N+](=O)[O-])=N\NC(=O)c1cc2ccccc2cc1O |  |  |  |  |  |  |  |  |  |  |  | > 100 |
| O=C1/C(=C/c2cccc([N+](=O)[O-])c2)COc2ccc(O)cc21 | 4.46 µM | 4.26 | 4.75 | 4.05 µM |  | 2.19 | 2 | 2.07 | 1.91 |  |  |  |
| O=C(O)c1ccccc1[Se][Se]c1ccccc1C(=O)O |  |  |  |  |  |  |  |  |  |  |  | > 100 |
| COc1cc(CNc2cnc3cc(N)cc(N)c3n2)cc(OC)c1 | 51.4 µM | > 100 | 20.4 | 39.5 µM |  | 20.2 | 41.4 | 5.58 | 21.1 |  |  |  |
| O=C(O)CCc1coc2ccc(O)cc12 |  |  |  |  |  |  |  |  |  |  | > 100 |  |
| Clc1cc2nsnc2c(Cl)n1 |  |  |  |  |  |  |  |  |  |  | > 100 |  |
| N#CC1C(C#N)C2(c3ccccc3)C(c3ccccc3)=NN(c3ccccc3)CC12 (configuration not stated) |  |  |  |  |  |  |  |  |  |  | > 100 |  |
| COc1cc(Cc2cnc(/N=C3\C(=O)N(CN4CCN(c5c(F)cc6c(=O)c(C(=O)O)cn(C7CC7)c6c5OC)CC4C)c4ccc(F)cc43)nc2N)cc(OC)c1OC (configuration not stated) | 49.2 µM |  | 30.3 | 32.9 µM |  | 19.7 |  | 11.8 | 14.2 |  |  |  |
| C=C(CN1CCN(c2ccc(Cl)cc2F)CC1)c1ccc(C(=O)Nc2ccccc2N)cc1 | > 65.3 µM | > 100 | 3.64 |  |  | 2.99 | 3.14 | 0.536 |  |  |  |  |

| Structure (SMILES) | TGI (BT-549 breast) | TGI (DU-145 prostate) [µM] | TGI (MDA-MB-231 breast) [µM] | TGI (MDA-MB-435) | TGI (MDA-N) | GI50 (BT-549 breast) [µM] | GI50 (DU-145 prostate) [µM] | GI50 (MDA-MB-231 breast) [µM] | GI50 (MDA-MB-435) [µM] | GI50 (MDA-N) [µM] | TGI (SNB-78 CNS) [µM] | TGI (RXF-631 renal) [µM] |
| --- | --- | --- | --- | --- | --- | --- | --- | --- | --- | --- | --- | --- |
| CC(C)=CC(=O)C1c2cccc(O)c2C(=O)c2c(O)cc(C)cc21 (configuration not stated) |  |  |  |  |  |  |  |  |  |  | 7.84 |  |
| COC(CN1C(=O)c2cccc3cccc(c23)C1=O)OC |  |  |  |  |  |  |  |  |  |  | > 100 |  |
| O=C(Nc1ccccc1)NS(=O)(=O)c1ccc(-n2nc3c(c2-c2cccs2)Cc2ccccc2-3)cc1 | 67.9 µM | 96.2 | 60.8 | 58.3 µM |  | 24.1 | 28.6 | 15.3 | 22.1 |  |  |  |
| CCCCOC(=O)C1OC(O[C@H]2CCC3(C)C(CCC4(C)C3CC=C3C5CC(C)(C)CCC5(C(=O)O)CC[C@]34C)C2(C)C)C(OC2OC(CO)C(O)C(O)C2O)C(OC2OC(CO)C(O)C(O)C2O)C1O (some centres not stated) | 41.6 µM |  | 32.2 | 81 µM |  | 21.5 |  | 14.5 | 30.6 |  |  |  |
| Cc1nc2ccccc2c(=O)n1-c1ccccc1I |  |  |  |  |  |  |  |  |  |  | > 100 |  |
| O=C1C=C(Cl)C(=O)C(c2ccc(Cl)cc2)=C1 | 46 µM | 46.5 | 36 | 46.6 µM | 27.5 µM |  |  |  |  |  |  |  |
| Cc1ccc2c(=O)cc(-c3ccc(F)cc3)[nH]c2n1 | > 100 µM | > 100 | > 100 | 22.2 µM | 32.1 µM |  |  |  | 5.87 |  |  |  |
| CN1C(=O)C(C)(C)C2(SC(C)(C)C2(C)C)N(C)C1=S (configuration not stated) |  |  |  |  |  |  |  |  |  |  | > 100 |  |
| Cn1cc(C2=C(c3cn(C)c4ncccc34)C(=O)NC2=O)c2ccccc21 | 22.2 µM | > 25 | > 25 | > 25 µM |  | 6.97 | 13.1 | 12.2 | 2.2 |  |  |  |
| O=C1C(Cl)=C(Nc2cccc(Cl)c2)C(=O)N1Cc1ccc(Cl)cc1Cl | 7.48 µM | 18.2 | 12.9 | 16 µM |  | 0.0663 | 5.87 | 0.176 | 1.24 |  |  |  |
| CC(=O)NNc1nc(C)c(C(=O)NNC(=O)C(=O)Nc2ccc(Cl)cc2)s1 |  |  |  |  |  |  |  |  |  |  | > 100 |  |
| O=C(/C=C/C12c3ccccc3C(c3ccccc31)C1C(=O)NC(=O)C12)c1ccncc1 (configuration not stated) | 5.93 µM | 11.8 | 12.7 | 8.36 µM |  | 2.06 | 2.8 | 3.13 | 2.9 |  |  |  |
| CC1(C)CCc2c(c3c(c4c(=O)c(O)c(-c5ccc(O)cc5)oc24)OC(C)(C)CC3)O1 |  | > 100 | 84.1 | > 100 µM |  |  | 85.1 | 28.3 | > 100 |  |  |  |
| CC12CCC(O)CC1CCC1C2CCC2(C)C(C3=CC(=O)OC3)CCC12O (configuration not stated) | 4.53 µM | 2.85 | > 100 | 9.38 µM | 6.38 µM |  |  |  |  |  |  |  |
| CN/N=C(/Cc1occc(=O)c1O)C(=O)Nc1ccccc1C |  |  |  |  |  |  |  |  |  |  | > 100 |  |
| Cc1coc2c1CC1(C)C(CCC(O)C1C)C2 (configuration not stated) | > 100 µM | > 100 | > 100 | > 100 µM | > 100 µM |  |  |  |  |  |  |  |
| COc1ccc2c(c1)/C(=C/c1c(C)nc3sc(C)nn13)C(=O)N2 | > 100 µM | > 100 | > 100 |  |  | 5.69 | 6.11 | 7.59 |  |  |  |  |
